The data set in a line: Dissolution rate of orlistat powder raw material. Type of data set: physicochemical. The procedure:
Orlistat is a drug having a melting point as low as 43° C., and is commercially available in a powder form. The dissolution rate of orlistat undergoing no denaturation under good storage conditions is about 60%. […] In addition, when raw materials of orlistat are exposed to high temperature during transport, the powder particles of orlistat rapidly aggregate. Thereafter, the aggregates remain even when being cooled, causing damage to the dissolution of orlistat.

For the molecule `CCCCCCCCCCC[C@@H](C[C@@H]1OC(=O)[C@H]1CCCCCC)OC(=O)[C@H](CC(C)C)NC=O` [orlistat], the dissolution rate is, setting by setting: (orlistat raw material exposed to high temperature during transport, particles aggregated) at most 40%; (orlistat undergoing no denaturation under good storage conditions) “about 60%”.
